The record followed here is patent US5198552A, “Indole derivative having antiviral, interferon-inducing and immunomodulatory effects” (priority 1991, dated 1993).

What is called LD50 is the dose at which mortality reaches 50%. A lower LD50 goes with greater toxicity.

For data set [1], the system named is influenza A/B viruses. Description: Medicinal effect on experimental influenzal pneumonia of mice induced by influenza A/B viruses. In kind it is in vivo. The following applies: hydrochloride monohydrate.
Data set [2] can be described thus: Long-term per os toxicity, rats. The following applies: per os 100 to 125 mg/kg during 6 months. In kind it is in vivo.
Data set [3] concerns herpes simplex virus from antigen-type I L2 -strain. Description: Preventive action in generalized mouse herpes. Details: species or system mice. As to conditions: in vivo.
The conditions of data set [4]: clinical trials.
A short description of data set [5]: Acute toxicity, single oral administration, mice. The following applies: mouse, in vivo.

Where “and” joins values, the source holds several entries; their conditions need not be identical. Equal entries are not always repeated. Entries after “also recorded” stand apart in the source; their conditions may differ.

Turning to `CCOC(=O)c1c(CSc2ccccc2)n(C)c2cc(Br)c(O)c(CN(C)C)c12.Cl.O` [preparation of the invention, ethyl 6-bromo-5-hydroxy-4-dimethylaminomethyl-1-methyl-2-phenylthiomethylindole-3-carboxylate hydrochloride monohydrate], the “medicinal (chemotherapeutical) effect on influenzal pneumonia” value in data set [1] is given as “shows a pronounced chemotherapeutical effect; also recorded: Exerts a medicinal effect”. Also, in data set [2], the pathological changes result is “did not cause any pathological changes”. Besides, the “prevention of death” value in data set [3] is 40%. In addition, in data set [3] (hydrochloride monohydrate), the Lethality is 60% and 75%; the “Lethality: absolute animal number” value was 12/20 and 15/20; the “The decrease of lethality” value is 40% and 25%. The “toxicity / tolerability in patients” value in data set [4] is “non-toxic, is well tolerated by patients”. The compound further returned an LD50 in data set [5] of 340 mg/kg.
